Data as given in patent publication US20100311726A1, “REDUCTION OF BETA-AMYLOID LEVELS BY TREATMENT WITH THE SMALL MOLECULE DIFFERENTIATION-INDUCING FACTOR” (priority 2007, published 2010).
Non-standard residues stand in square brackets, D forms with d. Residues, ends and D or L forms follow the SMILES beside them. Nle = CCCC[C@H](N)C(=O)O

Experiments:
Dictyostelium discoideum = settings: cited from earlier work
[1] = test system: human leukemia K562 cells; settings: Kubohara 1999; cited from earlier work
[2] = test system: APP phosphorylation on residue T668; assay: APP T668 phosphorylation by western blot; format: cell-based, human; settings: CHO-7W and CHO-CAB; DAPT alone, or DAPT with DIF-1 (30 μM)
Method: Next, whether or not DIF-1 treatment affected the degree of T668 phosphorylation was examined by western blot (FIG. 11). Briefly, effects of DIF-1 on APP T668 phosphorylation were compared between vehicle-treated control and 250 nM of DAPT identically in each cell line. Western analysis of 15 μg of total protein was probed overnight at 4° C. with anti-APP Cterminal antibody (C66-676-695) (1:5000) and then detected on film using ECL and HRP-conjugated secondary antibodies (1:5000). […] This band has also been detected in other CHO lines where APP expression is high (˜3 fold) and by different C-terminal APP antibodies (Ab8717-676-695; except 6E10 which recognizes the N-terminal residues 1-17 of the Aβ sequence. For FIG. 11A, cells were treated with DAPT, and DAPT+DIF then were probed with anti-APP antibody (C66). For FIG. 11B, CHO-7W cells were treated with DAPT, and DAPT+DIF, and then probed with polyclonal anti-P668 APP antibody (1:1000) overnight at 4° C. in 5% BSA. After washing, cells were probed with a rabbit HRP-conjugated secondary antibody (1:5000) in BSA for 1 hour at room temperature and signals were detected on film using ECL. FIG. 11C represents CHO-CAB cells and FIG. 11D represents H4 cells expressing APP^SW.

cyclin D1 = assay: Cyclin D1 level by western blot; settings: for effect on cyclin D1 level (proteasome inhibitor alone): CHO-CAB, 10 μM
Method: Following treatment of each cell line with or without DIF-1 (1-30 μM) and/or other inhibitors, cells were lysed in cold RIPA buffer (20 mM Tris-HCl (pH 7.4) buffer containing 150 mM NaCl, 2 mM EDTA, 1% Nonidet® P-40 (NP-40), 50 mM NaF, 1 mM Na3VO4, 1 mM Na2MoO4, 10 mg/ml aprotinin, and 10 mg/ml leupeptin), supplemented with protease inhibitor tablets from Roche (Switzerland). Protein amounts were quantified in triplicate using the BCA assay from Pierce. Equal amounts of protein extracts were fractionated by sodium dodecyl sulfate polyacrylamide gel electrophoresis (SDS-PAGE) and transferred to polyvinylidene difluoride membranes. The membranes were blocked for 1 hour with 5% fat-free powdered milk or 5% BSA, incubated overnight at 4° C. with primary antibodies (1:1000 or 1:5000), washed with TTBS and then incubated at room temperature with appropriate peroxidase-conjugated secondary antibodies (1:5000). Blots were repeatedly washed with TTBS and target proteins were detected using an enhanced chemiluminescence (ECL) system (Amersham Pharmacia Biotech, New Jersey, USA) and XOMAT™ Kodak® film.
Densitometry analysis of western blot data was performed on a PC computer using QuantityOne® software obtained from Bio-Rad® Laboratories, Inc. (California, USA). Loading variations between western blot lanes were normalized according to the GAPDH signal prior to any experimental quantification. Each western blot presented in the figures is representative of at least five independent experiments to ensure reproducibility of the results unless noted otherwise.
CHO-CAB cells were treated with lithium chloride (10mM). […] To ensure that the results observed were due to proteasome inhibition, we assessed the effects of lactacystin and ALLN on cyclin D1 levels. […] The data represents that of three separate experiments.

human APLP1 = assay: APLP1 metabolism by western blot in CHO-A1 cells; format: cell-based; settings: 30 μM DIF-1 or 250 nM DAPT, ~20 hours
Method: CHO cells that stably express human APLP1, which is a closely related family member of the APPs and known γ-secretase substrate (Eggert et al., 2004), were treated with 30 μM DIF-1, DAPT or DIF-1 plus DAPT (FIG. 7). Equal numbers of CHO-A1 cells stably expressing human APLP1 cells were plated in 6-well dishes and allowed to grow overnight. The next day, the media was removed and replaced with control media (2 ml) or media containing DAPT, DIF-1 or DAPT and DIF-1. […] After washing, blots were probed with HRP-conjugated secondary antibodies (1:5000) for 1 hour at room temperature.

APP [3] = assay: APP processing (mature APP, αCTF, βCTF) by western blot; format: cell-based, human; settings: CHO-7W, 250 nM
Method: Total protein was collected in RIPA buffer plus protease inhibitors on ice and briefly sonicated. They lysate was centrifuged at 14,000 rpm for 15 minutes. […] After washing, the blots were probed with a polyclonal HRP-tagged secondary Ab (1:5000) for 1 hour at room temperature then visualized.
A second possibility is that DIF-1 potentiates the activity of y-secretase and processing of αCTFs and βCTFs. To assess this latter possibility, we examined the effect of DIF-1 in the presence of DAPT, a potent γ-secretase inhibitor. Even numbers of CHO-7W cells were plated in 6-well dishes and allowed to grow overnight. The next day, the media was removed and replaced with control media (2 ml) or media containing DAPT, DIF-1 or DAPT and DIF-1. […] After washing, blots were probed with HRP-conjugated secondary antibodies (1:5000) for 1 hour at room temperature. […] It would appear that the mechanism of DIF-1 on APP metabolism is not likely to involve γ-secretase activity, but might impact on either BACE1 levels or activity.
To evaluate this probability, we treated CHO-CAB cells that overexpress human APP^751 and human BACE1 with 30 μM of DIF-1. More specifically, even numbers of CHO-CAB cells were plated in 6-well dishes and allowed to grow overnight. The next day, the media was removed and replaced with control media (2 ml) or media containing DAPT, DIF-1 or DAPT and DIF-1. […] After washing, blots were probed with HRP-conjugated secondary antibodies (1:5000) for 1 hour at room temperature. Each treatment is shown above the blot. […] It would appear that DIF-1 has a greater effect on APP maturation in CHO-CAB cells. Longer exposures reveal the presence of mature APP bands in DIF-1 treated cells.
Next dose-dependent effects of DIF-1 on APP processing were examined. Even numbers of CHO-CAB cells were plated in 6-well dishes and allowed to grow overnight. The next day, cells were treated overnight with either vehicle or increasing concentrations of DIF-1 (5-30 μM).

GSK = settings: cited from earlier work
APP [4] = assay: APP processing (mature APP, αCTF, βCTF) by western blot; format: cell-based, human; settings: for effect of kinase inhibitor alone on APP processing / CTF levels: CHO-7W or CHO-CAB, LiCl 1-10 mM; for effect of kinase inhibitor pretreatment on the effect of DIF-1 on APP processing: with 30 μM DIF-1; for effect of proteasome inhibitor alone on APP CTF levels: CHO-CAB, 10 μM
APP ubiquitin-conjugates = APP ubiquitin-conjugates by immunoprecipitation and western blot; settings: CHO-CAB; DIF-1 30 μM, lactacystin 10 μM, ALLN 10 μM
Method: For immunoprecipitations, 1 mg of total protein was diluted with extraction buffer and precleared with protein G-conjugated agarose beads (Pierce). The precleared samples were incubated overnight with anti-APP antibodies or nonimmune IgG (Jackson Laboratories). Immunocomplexes were captured with Protein G agarose beads, washed five times with extraction buffer and heated for 5 min at 95° C. in SDS gel-loading buffer.
CHO-CAB cell protein extracts (1 mg) were immunoprecipitated using APP antibodies. The immunoprecipitated complexes were analyzed by western blotting using anti-ubiquitin antibodies. […] Molecular Weight markers (kDa) are shown on the left. GAPDH levels are shown below each blot. The data represents that of three separate experiments.
To determine whether the proteasome-mediated degradation of APP is accompanied by increased levels of poly-ubiquitinated APP, we investigated the ubiquitination status of APP in extracts of CHO-CAB cells treated in the absence or presence of DIF-1 (30 μM), lactacystin (10 μM), ALLN (10 μM), DIF-1+lactacystin and DIF-1+ALLN.

For CCCCCC(=O)c1c(O)cc(OC)c(Cl)c1O [DIF-3, 1-(3-chloro-2,6-dihydroxy-4-methoxyphenyl)hexan-1-one], the “activity in inducing stalk-cell differentiation” value (Dictyostelium discoideum; in words) is listed as “much less active” and the “anti-leukemic potency among DIF analogs” value [1] is listed as “most potent anti-leukemic agent”.

For C[C@H](NC(=O)Cc1cc(F)cc(F)c1)C(=O)N[C@H](C(=O)OC(C)(C)C)c1ccccc1 [DAPT, N4-[N-(3,5-difluorophenacetyl-1-alanyl)]-S-phenylglycine tert-butyl ester, reference compound], the “amount of T668 phosphorylated APP CTFs” value [2] was “greatly increased the amount of detectable phosphorylated APP at residue T668”, the “effect on cyclin D1 level” value (cyclin D1; CHO-7W, 30 μM DIF-1 or 250 nM DAPT) was “no effect” and the “APLP1 maturation, protein levels, CTF levels” value (human APLP1) was “significant increase in the levels of APLP1 CTF”. The “α- and βCTF levels with γ-secretase inhibitor alone” value (APP [3]) was “increase in the levels of both α- and βCTFs”.

In the case of O=C1Cc2c([nH]c3ccc(Br)cc23)-c2ccccc2N1 [kenpaullone, 9-bromo-7,12-dihydro-indolo[3,2d][1]benzazepin-6(5H)-one], the IC50 (GSK) is listed as 23 nM, the “effect of kinase inhibitor alone on APP processing / CTF levels” value (APP [4]) is listed as “no effect on the level of APP CTFs” and the “effect of kinase inhibitor pretreatment on the effect of DIF-1 on APP processing” value (APP [4]) is listed as “neither attenuated nor potentiated the effect of DIF-1 on APP processing”.

In the case of CC[C@H](CO)Nc1nc(NCc2ccccc2)c2ncn(C(C)C)c2n1 [roscovitine, 2-(R)-[[9-(1-Methylethyl)-6-[(phenylmethyl)amino]-9H-purin-2-yl]amino]-1 butanol], the “effect of kinase inhibitor alone on APP processing / CTF levels” value (APP [4]) is reported as “no effect on APP metabolism” and the “effect of kinase inhibitor pretreatment on the effect of DIF-1 on APP processing” value (APP [4]) is reported as “neither blocked nor potentiated the effect of DIF-1 on APP CTF production”.

With CCCC[C@@H](C=O)NC(=O)[C@H](CC(C)C)NC(=O)[C@H](CC(C)C)NC(C)=O [ALLN, Acetyl-L-Leucyl-L-Leucyl-L-Norleucinal, reference compound] (Ac-Leu-Leu-[Nle]-aldehyde) the “effect on cyclin D1 level (proteasome inhibitor alone)” value (cyclin D1) was “increased the levels of cyclin D1”, the “level of APP ubiquitin-conjugates (single agent)” value (APP ubiquitin-conjugates) was “increased the level of APP ubiquitin conjugates” and the “effect of proteasome inhibitor alone on APP CTF levels” value (APP [4]) was “induced an increase in CTF levels”.

In the case of CCCCC(=O)c1c(O)c(Cl)c(OC)c(Cl)c1O [DIF-2, 1-(3,5-dichloro-2,6-dihydroxy-4-methoxyphenyl)pentan-1-one], the “specific activity relative to DIF-1 (stalk-cell differentiation)” value (Dictyostelium discoideum; percent of the activity of DIF-1) is given as roughly 40%.

For CC(=O)N[C@@H](CSC(=O)[C@]1([C@@H](O)C(C)C)NC(=O)[C@H](C)[C@@H]1O)C(=O)O [lactacystin, 3S-hydroxy-2R-(1-hydroxy-2-methylpropyl)-4R-methyl-5-oxo-2 pyrrolidine-carboxylate-N-acetyl-L-cysteine, reference compound], the “effect on cyclin D1 level (proteasome inhibitor alone)” value (cyclin D1) was “increased the levels of cyclin D1”, the “level of APP ubiquitin-conjugates (single agent)” value (APP ubiquitin-conjugates) was “increased the level of APP ubiquitin conjugates” and the “effect of proteasome inhibitor alone on APP CTF levels” value (APP [4]) was “induced an increase in the level of αCTF and βCTF”.
